The text below walks through data of patent publication US20240336594A1, “SIX-MEMBERED ARYL OR HETEROARYL AMIDES, AND COMPOSITION AND USE THEREOF” (BETTA PHARMACEUTICALS CO., LTD, priority 2021, published 2024).

Structures are written as SMILES.

Test [1] relates to IL-2 secretion of Jurkat cells (PMA/Ionomycin inducing). The test is described as follows: ELISA method to detect IL-2 secretion induced by PMA/Ionomycin. The conditions noted are these: Homo sapiens, 20 h. The class given is cell-based. On the procedure: 12.5*10^3 Jurkat cells were seeded on a 96-well plate and incubated with various concentrations of compound solution for 30 min. Then, 500×PMA/Ionomycin stimulating factor was diluted with culture medium and added to the cell plate. […] The final concentrations of the compounds were 10000, 3333.3, 1111.1, 370.4, 123.5, 41.2, 13.7, 4.6, 1.5, 0 nM (The final concentration of DMSO is 0.5%). After incubation for 20 h, the supernatant was collected via centrifugation. The final IL-2 concentration was detected by ELISA method (IL-2 Duoset, R&D Systems, DY202). The signal value of each sample at a wavelength of 450 nm was collected by EnVision multifunctional microplate reader and converted to the IL-2 concentration via the ELISACalc.exe software. The IL-2 secretion inhibitory activity IC50 was fitted by GraphPad Prism software. The cell viability was tested simultaneously using the Cell-Titer Glo kit.
The compounds of the present invention show strong inhibitory effect on IL-2 secretion of Jurkat cells (PMA/Ionomycin inducing).

The target of test [2] is T1, MALT1 (Homo sapiens, UniProt Q9UDY8).
T1 sequence (Q9UDY8 1-824): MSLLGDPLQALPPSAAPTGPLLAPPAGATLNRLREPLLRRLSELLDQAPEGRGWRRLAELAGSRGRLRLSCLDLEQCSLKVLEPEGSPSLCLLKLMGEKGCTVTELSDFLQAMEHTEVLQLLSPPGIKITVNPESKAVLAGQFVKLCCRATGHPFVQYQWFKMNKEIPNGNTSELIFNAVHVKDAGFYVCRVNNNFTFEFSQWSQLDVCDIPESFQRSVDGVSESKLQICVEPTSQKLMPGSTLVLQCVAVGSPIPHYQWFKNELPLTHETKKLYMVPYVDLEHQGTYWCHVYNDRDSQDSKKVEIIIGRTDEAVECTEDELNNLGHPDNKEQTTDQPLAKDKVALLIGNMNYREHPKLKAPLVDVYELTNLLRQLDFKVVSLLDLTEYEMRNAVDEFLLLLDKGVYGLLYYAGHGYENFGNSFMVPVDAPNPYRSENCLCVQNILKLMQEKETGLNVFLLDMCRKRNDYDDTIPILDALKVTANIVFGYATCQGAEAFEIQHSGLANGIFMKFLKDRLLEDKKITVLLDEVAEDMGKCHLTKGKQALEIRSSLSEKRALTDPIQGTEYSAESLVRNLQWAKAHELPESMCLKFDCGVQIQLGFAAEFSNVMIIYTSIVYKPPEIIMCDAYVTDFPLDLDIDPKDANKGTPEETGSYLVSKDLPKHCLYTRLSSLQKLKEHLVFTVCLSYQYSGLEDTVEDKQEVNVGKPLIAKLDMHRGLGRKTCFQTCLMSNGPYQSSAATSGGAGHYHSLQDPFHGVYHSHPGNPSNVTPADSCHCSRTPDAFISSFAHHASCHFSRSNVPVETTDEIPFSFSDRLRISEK
The test is described as follows: MALT1 protease inhibition assay (AMC-labeled peptide, fluorescence 360/460). In kind it is biochemical. The conditions noted are these: substrate Ac-LRSR-AMC, 15 min preincubation, 90 min at 25° C. The procedure, abridged:
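Recombinant MALT1 preincubated with test compounds (10-point 1:3 dilutions in DMSO, duplicates) for 15 min at 25 °C in citrate-containing protease buffer with DTT, then AMC-labeled peptide added for 90 min at 25 °C. Inhibition normalized to no-compound (max) and no-enzyme (min) wells; IC50 from curve fit.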

As to `Cc1nc(-c2ccc(F)cc2Cl)ncc1C(=O)Nc1cnc(-n2nccn2)c(C(F)(F)F)c1` [Example A12], the IC50 in test [1] was found to be 285 nM.

In turn, `Cc1cc(-c2ccc(F)cc2Cl)ccc1C(=O)Nc1cnc(-n2nccn2)c(C(F)(F)F)c1` [Example A16, N-(6-(2H-1,2,3-triazol-2-yl)-5-(trifluoromethyl)pyridin-3-yl)-2′-chloro-4′-fluoro-3-methyl-[1,1′-biphenyl]-4-carboxamide] returned an IC50 in test [1] of 194 nM.

Regarding `O=C(Nc1cnc(-n2nccn2)c(C(F)(F)F)c1)c1ccc(-c2ccc(F)cc2Cl)cc1Cl` [Example A17, N-(6-(2H-1,2,3-triazol-2-yl)-5-(trifluoromethyl)pyridin-3-yl)-2′,3-dichloro-4′-fluoro-[1,1′-biphenyl]-4-carboxamide], half-maximal inhibition in test [1] (IC50) required 191 nM.

In the case of `O=C(Nc1cnc(-n2nccn2)c(C(F)(F)F)c1)c1cnc(-c2ccc(F)cc2Cl)cc1Cl` [Example A18, N-(6-(2H-1,2,3-triazol-2-yl)-5-(trifluoromethyl)pyridin-3-yl)-4-chloro-6-(2-chloro-4-fluorophenyl)nicotinamide], the IC50 in test [1] was determined as 598 nM.

Turning to `O=C(Nc1cnc(-n2nccn2)c(C(F)(F)F)c1)c1ccc(-c2ccc(F)cc2Cl)cc1C1CC1` [Example A19, N-(6-(2H-1,2,3-triazol-2-yl)-5-(trifluoromethyl)pyridin-3-yl)-2′-chloro-3-cyclopropyl-4′-fluoro-[1,1′-biphenyl]-4-carboxamide], in test [1], the midpoint of inhibition, the IC50, lay at 632 nM.

`O=C(Nc1cnc(-n2nccn2)c(Cl)c1)c1ccc(-c2ccccc2Cl)cc1Cl` [Example A42] gave an IC50 in test [1] of 471 nM.

In the case of `COc1ccccc1-c1ccc(C(=O)Nc2cnc(-n3nccn3)c(C(F)(F)F)c2)c(C)c1` [Example A64], it took 463 nM to reach half-maximal inhibition in test [1] (IC50).

`COc1ccccc1-c1cc(Cl)c(C(=O)Nc2cnc(-n3nccn3)c(C(F)(F)F)c2)cc1F` [Example A67]: in test [1], the IC50 was 325 nM.

The compound `Nc1ccccc1-c1cc(Cl)c(C(=O)Nc2cnc(-n3nccn3)c(C(F)(F)F)c2)cc1F` [Example A69] returned an IC50 in test [1] of 195 nM.

In test [1], `O=C(Nc1cnc(-n2nccn2)c(Cl)c1)c1ccc(-c2ccncc2Cl)cc1Cl` [Example A100] returned an IC50 of 369 nM.

Regarding `O=C(Nc1cnc(-n2nccn2)c(Cl)c1)c1ccc(-c2ccc(F)cc2Br)cc1Cl` [Example A102], the half-maximal inhibitory concentration (IC50) in test [1] stood at 154 nM.

Consider `COc1cc(F)ccc1-c1ccc(C(=O)Nc2cnc(-n3nccn3)c(Cl)c2)c(Cl)c1` [Example A104], for which the IC50 in test [1] turned out to be 294 nM.

In test [1], `O=C(Nc1cnc(-n2nccn2)c(C(F)(F)F)c1)c1cc(F)c(-c2ccc(F)cc2Cl)cc1Cl` [Example A105] displayed an IC50 of 134 nM.

`O=C(Nc1cnc(-n2nccn2)c(C(F)(F)F)c1)c1cc(F)c(-c2ccccc2Cl)cc1Cl` [Example A106, N-(6-(2H-1,2,3-triazol-2-yl)-5-(trifluoromethyl)pyridin-3-yl)-2′,5-dichloro-2-fluoro-[1,1′-biphenyl]-4-carboxamide] had an IC50 in test [1] of 265 nM.

As for `Nc1ccccc1-c1cc(Cl)c(C(=O)Nc2cnc(-n3nccn3)c(Cl)c2)cc1F` [Example A109, 2′-amino-5-chloro-N-(5-chloro-6-(2H-1,2,3-triazol-2-yl)pyridin-3-yl)-2-fluoro-[1,1′-biphenyl]-4-carboxamide], the IC50 in test [1] was 94 nM; in test [2] it was not above 10 nM.

With `Nc1ccccc1-c1cc(F)c(C(=O)Nc2cnc(-n3nccn3)c(C(F)(F)F)c2)cc1Cl` [Example A110], the IC50 in test [1] is 186 nM; in test [2] it was not above 10 nM.

For `Nc1ccccc1-c1cc(Cl)c(C(=O)Nc2cnc(-n3nccn3)c(C(F)(F)F)c2)cc1Cl` [Example A111, N-(6-(2H-1,2,3-triazol-2-yl)-5-(trifluoromethyl)pyridin-3-yl)-2′-amino-2,5-dichloro-[1,1′-biphenyl]-4-carboxamide], in test [1], half-maximal inhibition (IC50) required 283 nM.

`COc1cc(F)ccc1-c1cc(Cl)c(C(=O)Nc2cnc(-n3nccn3)c(C(F)(F)F)c2)cc1F` [Example A112, N-(6-(2H-1,2,3-triazol-2-yl)-5-(trifluoromethyl)pyridin-3-yl)-5-chloro-2,4′-difluoro-2′-methoxy-[1,1′-biphenyl]-4-carboxamide]: 234 nM corresponded to half-maximal inhibition in test [1] (IC50).

`COc1ccccc1-c1cc(C)c(C(=O)Nc2cnc(-n3nccn3)c(Cl)c2)cc1F` [Example A117, N-(5-chloro-6-(2H-1,2,3-triazol-2-yl)pyridin-3-yl)-2-fluoro-2′-methoxy-5-methyl-[1,1′-biphenyl]-4-carboxamide] yielded an IC50 in test [1] of 184 nM.

`COc1cc(F)ccc1-c1cc(C)c(C(=O)Nc2cnc(-n3nccn3)c(Cl)c2)cc1F` [Example A118, N-(5-chloro-6-(2H-1,2,3-triazol-2-yl)pyridin-3-yl)-2,4′-difluoro-2′-methoxy-5-methyl-[1,1′-biphenyl]-4-carboxamide] came in with an IC50 in test [1] of 82 nM.

`C#Cc1cnccc1-c1cc(Cl)c(C(=O)Nc2cnc(C(=O)NCC(F)(F)F)c(Cl)c2)cc1F` [Example A429, 3-chloro-5-(2-chloro-4-(3-ethynylpyridin-4-yl)-5-fluorobenzamido)-N-(2,2,2-trifluoroethyl)picolinamide] registered an IC50 in test [1] of 259 nM.

The compound `Nc1cnc(F)c(Br)c1-c1cc(Cl)c(C(=O)Nc2cnc(-n3nccn3)c(C(F)(F)F)c2)cc1F` [Example A521, N-(6-(2H-1,2,3-triazol-2-yl)-5-(trifluoromethyl)pyridin-3-yl)-4-(5-amino-3-bromo-2-fluoropyridin-4-yl)-2-chloro-5-fluorobenzamide] displayed an IC50 in test [2] not above 10 nM.

For the compound `CC(=O)c1cncc(N)c1-c1cc(Cl)c(C(=O)Nc2cnc(-n3nccn3)c(Cl)c2)cc1F` [Example A529, 4-(3-acetyl-5-aminopyridin-4-yl)-2-chloro-N-(5-chloro-6-(2H-1,2,3-triazol-2-yl)pyridin-3-yl)-5-fluorobenzamide], in test [1], the IC50 was 208 nM.

Regarding `C#Cc1cnc(C)c(N)c1-c1cc(Cl)c(C(=O)Nc2cnc(-n3nccn3)c(C(F)(F)F)c2)cc1F` [Example A551, N-(6-(2H-1,2,3-triazol-2-yl)-5-(trifluoromethyl)pyridin-3-yl)-4-(3-amino-5-ethynyl-2-methylpyridin-4-yl)-2-chloro-5-fluorobenzamide], the IC50 in test [2] was not above 10 nM.

With `C#Cc1cnc(F)c(N)c1-c1cc(Cl)c(C(=O)Nc2cnc(-n3nccn3)c(C(F)(F)F)c2)cc1F` [Example A552, N-(6-(2H-1,2,3-triazol-2-yl)-5-(trifluoromethyl)pyridin-3-yl)-4-(3-amino-5-ethynyl-2-fluoropyridin-4-yl)-2-chloro-5-fluorobenzamide], the IC50 in test [2] was not above 10 nM.

The compound `C#Cc1cnc(Cl)c(N)c1-c1cc(Cl)c(C(=O)Nc2cnc(-n3nccn3)c(C(F)(F)F)c2)cc1F` [Example A553] registered an IC50 in test [2] not above 10 nM.

In test [2], `C#Cc1cnc(C#N)c(N)c1-c1cc(Cl)c(C(=O)Nc2cnc(-n3nccn3)c(C(F)(F)F)c2)cc1F` [Example A554, N-(6-(2H-1,2,3-triazol-2-yl)-5-(trifluoromethyl)pyridin-3-yl)-4-(3-amino-2-cyano-5-ethynylpyridin-4-yl)-2-chloro-5-fluorobenzamide] came in with an IC50 not above 10 nM.

Turning to `C#Cc1c(F)nc(C)c(N)c1-c1cc(Cl)c(C(=O)Nc2cnc(-n3nccn3)c(C(F)(F)F)c2)cc1F` [Example A556, N-(6-(2H-1,2,3-triazol-2-yl)-5-(trifluoromethyl)pyridin-3-yl)-4-(3-amino-5-ethynyl-6-fluoro-2-methylpyridin-4-yl)-2-chloro-5-fluorobenzamide], the IC50 in test [2] is not above 10 nM.

`C#Cc1c(F)nc(F)c(N)c1-c1cc(Cl)c(C(=O)Nc2cnc(-n3nccn3)c(C(F)(F)F)c2)cc1F` [Example A557, N-(6-(2H-1,2,3-triazol-2-yl)-5-(trifluoromethyl)pyridin-3-yl)-4-(3-amino-5-ethynyl-2,6-difluoropyridin-4-yl)-2-chloro-5-fluorobenzamide] registered an IC50 in test [2] not above 10 nM.

Compound `Nc1c(Cl)ncc(Br)c1-c1cc(Cl)c(C(=O)Nc2cnc(-n3nccn3)c(C(F)(F)F)c2)cc1F` [Example A558] displayed an IC50 in test [2] not above 10 nM.
